In patent US11401286B2 (Tetra Discovery Partners, LLC, priority 2012, dated 2022) one finds IC50 data, which are given here for 38 compounds.

In one assay the test system is recombinant human PDE4. The settings on record: reported value; read-out: IC50 with respect to inhibiting recombinant human PDE4; cited from earlier work.
The target of the next assay is PDE4D7 (Homo sapiens (Human), UniProt Q08499).
The mark [1] stands for this setting: read-out: PDE4D7 IC50, PDE4D7 without asterisk.

Molecules are shown by their SMILES. Counter-ions that a name gives are not always drawn. Like-named read-outs stand apart in the source and are kept apart here.

What is called IC50 is the concentration needed to halve the response being measured.

Chain of PDE4D7 (Q08499 other isoform, or with tags, fused parts or gaps): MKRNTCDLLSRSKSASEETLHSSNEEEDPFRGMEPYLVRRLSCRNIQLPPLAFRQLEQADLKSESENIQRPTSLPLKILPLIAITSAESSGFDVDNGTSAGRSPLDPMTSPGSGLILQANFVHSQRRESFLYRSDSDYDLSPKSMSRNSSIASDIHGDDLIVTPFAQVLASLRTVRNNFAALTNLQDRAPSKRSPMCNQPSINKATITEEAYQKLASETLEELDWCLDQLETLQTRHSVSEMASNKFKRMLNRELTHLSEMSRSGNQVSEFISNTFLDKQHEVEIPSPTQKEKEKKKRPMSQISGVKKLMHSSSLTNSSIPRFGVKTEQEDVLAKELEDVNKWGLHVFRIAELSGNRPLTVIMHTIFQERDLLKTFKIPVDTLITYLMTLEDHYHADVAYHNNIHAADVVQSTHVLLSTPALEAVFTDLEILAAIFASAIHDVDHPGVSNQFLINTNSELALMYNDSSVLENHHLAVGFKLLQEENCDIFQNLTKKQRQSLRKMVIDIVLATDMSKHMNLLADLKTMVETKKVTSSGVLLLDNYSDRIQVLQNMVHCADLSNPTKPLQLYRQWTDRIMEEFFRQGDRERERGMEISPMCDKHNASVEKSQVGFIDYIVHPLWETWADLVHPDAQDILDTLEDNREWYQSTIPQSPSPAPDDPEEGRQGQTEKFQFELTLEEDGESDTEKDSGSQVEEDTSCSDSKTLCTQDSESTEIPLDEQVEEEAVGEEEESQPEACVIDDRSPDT

Turning to `COc1ccc(C2CNC(=O)C2)cc1OC1CCCC1` (centres unmarked) [rolipram], the IC50 with recombinant human PDE4 was approximately 0.2 µM.
Regarding `NC(=O)Cc1ccc(Nc2nc(-c3cccc(Cl)c3)nc3c2SCC3)cc1` [Example 280, 2-(4-((2-(3-chlorophenyl)-6,7-dihydrothieno[3,2-d]pyrimidin-4-yl)amino)phenyl)acetamide], the IC50 on PDE4D7 (setting [1]) is less than 1 µM.
Consider `O=C(O)Cc1ccc(Nc2cc(C3CC3)nc(-c3ccc(Cl)s3)n2)cc1` [Example 297, 2-[4-[[2-(5-Chloro-2-thienyl)-6-cyclopropyl-pyrimidin-4-yl]amino]phenyl]acetic acid], for which, at PDE4D7 (setting [1]), the half-maximal inhibitory concentration (IC50) is more than 1 µM.
Consider `CCc1nc(Nc2ccc(CCOC)cc2)nc(-c2cccc(Cl)c2)n1` [Example 82, 4-(3-Chlorophenyl)-6-ethyl-N-(4-(2-methoxyethyl)phenyl)-1,3,5-triazin-2-amine], for which the IC50 at PDE4D7 (setting [1]) was less than 1 µM.
For the compound `OCCCc1ccc(Nc2nc(-c3cccc(Cl)c3)nc3c2CCC3)cc1` [Example 163, 3-(4-((2-(3-Chlorophenyl)-6,7-dihydro-5H-cyclopenta[d]pyrimidin-4-yl)amino)phenyl)propan-1-ol], the IC50 at PDE4D7 (setting [1]) is less than 1 µM.
As for `FC(F)(F)Cc1ccc(Nc2cc(-c3cccc(Cl)c3)nc3c2CCC3)cc1` [Example 110, 2-(3-Chlorophenyl)-N-(4-(2,2,2-trifluoroethyl)phenyl)-6,7-dihydro-5H-cyclopenta[b]pyridin-4-amine hydrochloride], on PDE4D7 (setting [1]), the IC50 is more than 1 µM.
On to `Cc1nc(Nc2ccc(C(=O)O)cc2)nc(-c2ccc(Cl)s2)n1` [Example 31, 4-(4-(5-chlorothiophen-2-yl)-6-methyl-1,3,5-triazin-2-ylamino)benzoic acid], for which, at PDE4D7 (setting [1]), the IC50 is more than 1 µM.
As to `CCc1cc(/N=c2\[nH]cc(CC(N)=O)o2)nc(-c2cccc(Cl)c2)n1` [Example 192, 2-(2-((2-(3-Chlorophenyl)-6-ethylpyrimidin-4-yl)imino)-2,3-dihydrooxazol-5-yl)acetamide], the IC50 on PDE4D7 (setting [1]) was more than 1 µM.
With `CCc1nc(Nc2ccc(C(=O)O)cc2)nc(-c2ccc(Cl)s2)n1` [Example 30, 4-(4-(5-chlorothiophen-2-yl)-6-ethyl-1,3,5-triazin-2-ylamino)benzoic acid], on PDE4D7 (setting [1]), the IC50 was less than 1 µM.
For `NC(=O)Cc1ccc(Nc2cc(-c3ccc(F)c(Cl)c3)nc3c2CCC3)cc1` [Example 150, 2-(4-((2-(3-Chloro-4-fluorophenyl)-6,7-dihydro-5H-cyclopenta[b]pyridin-4-yl)amino)phenyl)acetamide hydrochloride], the IC50 on PDE4D7 (setting [1]) is more than 1 µM.
On to `NC(=O)Cc1ccc(Nc2cc(C3CC3)nc(-c3cccc(Cl)c3)n2)cc1` [Example 207, 2-(4-((2-(3-Chlorophenyl)-6-cyclopropylpyrimidin-4-yl)amino)phenyl)acetamide], for which the IC50 at PDE4D7 (setting [1]) was less than 1 µM.
On to `C[C@@H](O)Cc1ccc(Nc2cc(-c3cccc(Cl)c3)nc3c2CCC3)cc1` [Example 106, (R)-1-(4-((2-(3-Chlorophenyl)-6,7-dihydro-5H-cyclopenta[b]pyridin-4-yl)amino)phenyl)propan-2-ol], for which the IC50 on PDE4D7 (setting [1]) was more than 1 µM.
Consider `OCCc1ccc(Nc2cc(-c3ccc[nH]3)nc3c2CCC3)cc1` [Example 132, 2-(4-((2-(1H-Pyrrol-2-yl)-6,7-dihydro-5H-cyclopenta[b]pyridin-4-yl)amino)phenyl)ethanol hydrochloride], for which the IC50 at PDE4D7 (setting [1]) is more than 1 µM.
For `NC(=O)Cc1cccc(Nc2cc(-c3cccc(Cl)c3)nc3c2CCC3)c1` [Example 101, 2-(3-((2-(3-Chlorophenyl)-6,7-dihydro-5H-cyclopenta[b]pyridin-4-yl)amino)phenyl)acetamide hydrochloride], the IC50 at PDE4D7 (setting [1]) was more than 1 µM.
Take `CCc1c(C)nc(-c2ccc(Cl)s2)nc1NCc1ccc(B(O)O)cc1` [Example 311, [4-[[[2-(5-Chloro-2-thienyl)-5-ethyl-6-methyl-pyrimidin-4-yl]amino]methyl]phenyl]boronic acid]: the IC50 at PDE4D7 (setting [1]) was more than 1 µM.
Turning to `CCc1nc(Nc2ccc(CCO)cc2)cc(-c2cccc(Cl)c2)n1` [Example 264, 2-(4-((6-(3-Chlorophenyl)-2-ethylpyrimidin-4-yl)amino)phenyl)ethanol], at PDE4D7 (setting [1]), the IC50 is less than 1 µM.
As to `NC(=O)Cc1ccc(Nc2nc(-c3cccc(Cl)c3)nc3c2SCCC3)cc1` [Example 271, 2-(4-((2-(3-chlorophenyl)-7,8-dihydro-6H-thiopyrano[3,2-d]pyrimidin-4-yl)amino)phenyl)acetamide], the IC50 on PDE4D7 (setting [1]) was less than 1 µM.
Same read-out and setting: as for `O=S1(=O)CCCc2nc(-c3cccc(Cl)c3)nc(Nc3ccc(CCO)cc3)c21` [Example 273, 2-(3-Chlorophenyl)-4-((4-(2-hydroxyethyl)phenyl)amino)-7,8-dihydro-6H-thiopyrano[3,2-d]pyrimidine 5,5-dioxide], the figure is less than 1 µM; as for `O=C(O)Cc1ccc(Nc2nc(-c3ccc(Cl)cc3)nc(C3CC3)n2)cc1` [Example 37, 2-(4-((4-(4-chlorophenyl)-6-cyclopropyl-1,3,5-triazin-2-yl)amino)phenyl)acetic acid], more than 1 µM.
Regarding `NC(=O)Cc1ccc(Nc2nc(C3CCCC3)nc3c2SCCC3)cc1` [Example 284, 2-(4-((2-cyclopentyl-7,8-dihydro-6H-thiopyrano[3,2-d]pyrimidin-4-yl)amino)phenyl)acetamide], the IC50 at PDE4D7 (setting [1]) is less than 1 µM.
Turning to `OCCc1ccc(Cc2cc(C(F)(F)F)nc(-c3cccc(Cl)c3)n2)cc1` [Example 205, 2-(4-((2-(3-Chlorophenyl)-6-(trifluoromethyl)pyrimidin-4-yl)methyl)phenyl)ethanol], the IC50 at PDE4D7 (setting [1]) was more than 1 µM.
As to `CC(Oc1ccc(Nc2cc(-c3cccc(Cl)c3)nc3c2CCC3)cc1)C(N)=O` (centres unmarked) [Example 116, 2-(4-((2-(3-Chlorophenyl)-6,7-dihydro-5H-cyclopenta[b]pyridin-4-yl)amino)phenoxy)propanamide hydrochloride], at PDE4D7 (setting [1]), the IC50 is more than 1 µM.
Still for that read-out and setting: to `NC(=O)Cc1ccc(C(O)c2cc(-c3cccc(Cl)c3)nc3c2CCC3)cc1` (centres unmarked) [Example 262, 2-(4-((2-(3-Chlorophenyl)-6,7-dihydro-5H-cyclopenta[b]pyridin-4-yl)(hydroxy)methyl)phenyl)acetamide hydrochloride] belongs more than 1 µM; to `CCc1c(C)nc(-c2ccc(Cl)s2)nc1Nc1ccc(Cn2cc(Cl)cn2)cc1` [Example 304, N-[4-[(4-Chloropyrazol-1-yl)methyl]phenyl]-2-(5-chloro-2-thienyl)-5-ethyl-6-methyl-pyrimidin-4-amine], more than 1 µM.
As for `CC(C)(C(N)=O)c1ccc(Cc2cc(-c3cccc(Cl)c3)nc3c2CCC3)cc1` [Example 127, 2-(4-((2-(3-Chlorophenyl)-6,7-dihydro-5H-cyclopenta[b]pyridin-4-yl)methyl)phenyl)-2-methylpropanamide hydrochloride], the IC50 at PDE4D7 (setting [1]) was more than 1 µM.
`CCCNC(=O)Cc1ccc(Cc2cc(CC)nc(-c3cccc(Cl)c3)n2)cc1` [Example 193, 2-(4-((2-(3-Chlorophenyl)-6-ethylpyrimidin-4-yl)methyl)phenyl)-N-propylacetamide] yielded an IC50 against PDE4D7 of more than 1 µM.
As for `OCCc1ccc(Nc2nc(OC3CCCC3)nc3c2CCC3)cc1` [Example 233, 2 2-(4-((2-(Cyclopentyloxy)-6,7-dihydro-5H-cyclopenta[d]pyrimidin-4-yl)amino)phenyl)ethanol], the IC50 on PDE4D7 (setting [1]) is more than 1 µM.
Regarding `Cc1cccc(-c2cc(Nc3ccc(CCO)cc3)c3c(n2)CCC3)c1` [Example 160, 2-(4-((2-(m-Tolyl)-6,7-dihydro-5H-cyclopenta[b]pyridin-4-yl)amino)phenyl)ethanol hydrochloride], at PDE4D7 (setting [1]), the IC50 was more than 1 µM.
As to `CCc1c(C)nc(-c2ccc(Cl)s2)nc1Nc1ccc2c(c1)COB2O` [Example 71, 2-(5-chloro-2-thienyl)-5-ethyl-N-(1-hydroxy-3H-2,1-benzoxaborol-5-yl)-6-methyl-pyrimidin-4-amine], on PDE4D7 (setting [1]), the IC50 was less than 1 µM.
Consider `CCc1cc(Nc2ccc(CC(N)=O)cc2)nc(-c2cccc(Cl)c2)n1` [Example 171, 2-(4-((2-(3-Chlorophenyl)-6-ethylpyrimidin-4-yl)amino)phenyl)acetamide], for which, at PDE4D7 (setting [1]), the IC50 was less than 1 µM.
For `CCc1cc(Cc2ccc(CC(N)=O)cc2)nc(-c2cccc(Cl)c2)n1` [Example 65, 2-(4-((2-(3-Chlorophenyl)-6-ethylpyrimidin-4-yl)methyl)phenyl)acetamide], on PDE4D7 (setting [1]), the IC50 was less than 1 µM.
Take `CCc1cc(Nc2ccc(CCN(C)C)cc2)nc(-c2cccc(Cl)c2)n1` [Example 170, 2-(3-Chlorophenyl)-N-(4-(2-(dimethylamino)ethyl)phenyl)-6-ethylpyrimidin-4-amine hydrochloride]: the half-maximal inhibitory concentration (IC50) on PDE4D7 (setting [1]) is more than 1 µM.
On the same count and under the same terms, to `O=C(O)CCc1ccc(Nc2nc(-c3cccc(Cl)c3)nc3c2CCC3)cc1` [Example 16, 3-[4-[[2-(3-Chlorophenyl)-6,7-dihydro-5H-cyclopenta[d]pyrimidin-4-yl]amino]phenyl]propanoic acid] belongs more than 1 µM; to `NC(=O)Cc1ccc(Nc2cc(-c3cncc(Cl)c3)nc3c2CCC3)cc1` [Example 134, 2-(4-((2-(5-Chloropyridin-3-yl)-6,7-dihydro-5H-cyclopenta[b]pyridin-4-yl)amino)phenyl)acetamide hydrochloride], more than 1 µM; to `O=C(O)Cc1ccc(Nc2cc(C(F)(F)F)nc(-c3ccc(Cl)s3)n2)cc1` [Example 296, 2-[4-[[2-(5-Chloro-2-thienyl)-6-(trifluoromethyl)pyrimidin-4-yl]amino]phenyl]acetic acid], more than 1 µM.
For the compound `O=C(O)c1ccc(Nc2nc(-c3ccc(Cl)cc3)nc(C3CC3)n2)cc1` [Example 38, 4-((4-(4-chlorophenyl)-6-cyclopropyl-1,3,5-triazin-2-yl)amino)benzoic acid], at PDE4D7 (setting [1]), the IC50 was less than 1 µM.
As for `COCCc1ccc(Nc2cc(-c3cccc(Cl)c3)nc3c2CCC3)cc1` [Example 86, 2-(3-Chlorophenyl)-N-(4-(2-methoxyethyl)phenyl)-6,7-dihydro-5H-cyclopenta[b]pyridin-4-amine hydrochloride], the half-maximal inhibitory concentration (IC50) at PDE4D7 (setting [1]) was more than 1 µM.
Regarding `OCCc1ccc(Nc2cc(-c3ccsc3)nc3c2CCC3)cc1` [Example 243, 2 2-(4-((2-(Thiophen-3-yl)-6,7-dihydro-5H-cyclopenta[b]pyridin-4-yl)amino)phenyl)ethanol], the IC50 on PDE4D7 (setting [1]) is more than 1 µM.
